Measured values taken from ChEMBL document CHEMBL4665745, “Bioactive Lignans from Hypoestes aristata” (J Nat Prod, 2020).
Calls of active or inactive are those of the source. No cut-off for these calls is given here.

Assays:
MCF7 [1] = experiment: Cytotoxicity against human MCF7 cells assessed as reduction in cell viability at <90 uM after 48 hrs; format: functional, cell-based; details: dose microM <90, time 48.0 hrs
MCF7 [2] = experiment: Cytotoxicity against human MCF7 cells assessed as reduction in cell viability after 48 hrs; format: functional, cell-based
MDA-MB-231 [3] = experiment: Cytotoxicity against human MDA-MB-231 cells assessed as reduction in cell viability at >90 uM after 48 hrs; format: functional, cell-based; details: dose microM >90, time 48.0 hrs
[4] = target: Human immunodeficiency virus type 1 protease (Human immunodeficiency virus 1) (UniProt Q72874); experiment: Inhibition of HIV-1 protease at >100 uM after 1 hr by fluorescence assay; details: dose microM >100, time 1.0 hrs
[5] = target: Human immunodeficiency virus type 1 protease (Human immunodeficiency virus 1) (UniProt Q72874); experiment: Inhibition of HIV-1 protease at <60 uM after 1 hr by fluorescence assay; details: dose microM <60, time 1.0 hrs
MDA-MB-231 [6] = experiment: Cytotoxicity against human MDA-MB-231 cells assessed as reduction in cell viability after 48 hrs; format: functional, cell-based

SMILES | inhibition [4] | inhibition [5] | Activity (MCF7 [1]) | Activity (MCF7 [2]) | Activity (MDA-MB-231 [3]) | Activity (MDA-MB-231 [6])
CC(=O)O[C@H](c1ccc2c(c1)OCO2)[C@H]1COC(=O)[C@@H]1[C@H](OC(C)=O)c1ccc2c(c1)OCO2 | Active | Active | inactive | Active | inactive | Active
COc1cc([C@H]2OC[C@H]3[C@@H]2CO[C@@H]3c2cc(OC)c(O)c(OC)c2)ccc1O | Active | – | – | – | – | –
CC(=O)O[C@@H](c1ccc2c(c1)OCO2)[C@H]1COC(O)[C@@H]1[C@@H](OC(C)=O)c1ccc2c(c1)OCO2 (stereo partly specified) | Active | – | inactive | Active | inactive | Active
CC(=O)N[C@H](C(=O)N[C@H](C(=O)N[C@@H](CC(C)C)[C@@H](O)CC(=O)N[C@@H](C)C(=O)N[C@@H](CC(C)C)[C@@H](O)CC(=O)O)C(C)C)C(C)C | – | – | inactive | – | inactive | –

Now from value to molecule, other results behind:

inhibition [4] | inhibition [5] | SMILES | Activity (MCF7 [1]) | Activity (MCF7 [2]) | Activity (MDA-MB-231 [3]) | Activity (MDA-MB-231 [6])
Active | Active | O=C1OC[C@H](Cc2ccc3c(c2)OCO3)[C@H]1Cc1ccc2c(c1)OCO2 | – | – | – | –
Active | – | CC(=O)O[C@H](c1ccc2c(c1)OCO2)[C@H]1COC(=O)[C@@H]1[C@H](O)c1ccc2c(c1)OCO2 | inactive | Active | inactive | Active
